For assay [1], the target named is Stromelysin-1 (Homo sapiens, UniProt P08254). As to the kind of experiment: Inhibitory activity against recombinant matrix metalloprotease-3.
Assay [2] has as its target 72 kDa type IV collagenase (Homo sapiens, UniProt P08253). Description: Inhibitory activity against recombinant matrix metalloprotease-2.
Assay [3] deals with T1, Interstitial collagenase (Homo sapiens, UniProt P03956).
T1 sequence (P03956 whole entry): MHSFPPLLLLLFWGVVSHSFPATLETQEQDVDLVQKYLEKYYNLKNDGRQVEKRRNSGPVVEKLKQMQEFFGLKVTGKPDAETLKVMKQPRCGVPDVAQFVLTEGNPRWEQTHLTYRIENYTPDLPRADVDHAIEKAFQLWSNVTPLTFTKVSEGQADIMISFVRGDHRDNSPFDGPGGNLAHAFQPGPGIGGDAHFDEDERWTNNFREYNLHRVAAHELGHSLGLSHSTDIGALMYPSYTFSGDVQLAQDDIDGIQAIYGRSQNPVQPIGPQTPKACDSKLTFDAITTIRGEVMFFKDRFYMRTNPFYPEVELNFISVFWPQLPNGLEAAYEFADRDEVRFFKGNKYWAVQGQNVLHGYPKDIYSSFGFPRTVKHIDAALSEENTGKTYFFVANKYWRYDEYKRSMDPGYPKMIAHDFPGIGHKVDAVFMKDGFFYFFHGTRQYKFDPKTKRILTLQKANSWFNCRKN
Description: Inhibitory activity against recombinant matrix metalloprotease-1.

The target of assay [4] is Phosphodiesterase 4 (Cavia porcellus). Description: Phosphodiesterase 4 inhibitory activity measured against guinea pig macrophage homogenate.
A short description of assay [5]: In vitro for the inhibition of TNF alpha release by human peripheral blood monocytes (PBMs). Type of assay: functional.
The target in assay [6] is Disintegrin and metalloproteinase domain-containing protein 17 (Homo sapiens) (UniProt P78536). As to the kind of experiment: Inhibitory activity against TACE.

The source made the active and inactive calls. The calls are words filed in the database; no cut-off is given here.

72 kDa type IV collagenase, sequence (P08253 whole entry): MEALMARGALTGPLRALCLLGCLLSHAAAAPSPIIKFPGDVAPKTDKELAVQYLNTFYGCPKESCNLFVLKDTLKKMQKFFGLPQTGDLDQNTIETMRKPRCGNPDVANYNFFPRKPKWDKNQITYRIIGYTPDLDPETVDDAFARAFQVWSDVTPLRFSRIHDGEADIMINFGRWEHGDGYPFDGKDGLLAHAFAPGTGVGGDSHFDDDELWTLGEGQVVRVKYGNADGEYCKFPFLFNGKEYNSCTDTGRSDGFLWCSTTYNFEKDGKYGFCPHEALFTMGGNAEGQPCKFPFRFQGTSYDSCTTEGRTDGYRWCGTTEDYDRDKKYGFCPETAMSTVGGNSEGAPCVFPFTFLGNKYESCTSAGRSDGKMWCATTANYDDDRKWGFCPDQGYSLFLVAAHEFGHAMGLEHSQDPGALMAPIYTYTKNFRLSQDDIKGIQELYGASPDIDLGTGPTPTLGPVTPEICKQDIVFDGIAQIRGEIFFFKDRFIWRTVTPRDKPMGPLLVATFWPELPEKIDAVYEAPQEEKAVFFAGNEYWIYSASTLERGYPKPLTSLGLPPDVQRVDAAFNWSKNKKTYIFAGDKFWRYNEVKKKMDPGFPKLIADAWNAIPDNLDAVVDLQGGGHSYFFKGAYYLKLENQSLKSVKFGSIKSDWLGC
Stromelysin-1, sequence (P08254 whole entry): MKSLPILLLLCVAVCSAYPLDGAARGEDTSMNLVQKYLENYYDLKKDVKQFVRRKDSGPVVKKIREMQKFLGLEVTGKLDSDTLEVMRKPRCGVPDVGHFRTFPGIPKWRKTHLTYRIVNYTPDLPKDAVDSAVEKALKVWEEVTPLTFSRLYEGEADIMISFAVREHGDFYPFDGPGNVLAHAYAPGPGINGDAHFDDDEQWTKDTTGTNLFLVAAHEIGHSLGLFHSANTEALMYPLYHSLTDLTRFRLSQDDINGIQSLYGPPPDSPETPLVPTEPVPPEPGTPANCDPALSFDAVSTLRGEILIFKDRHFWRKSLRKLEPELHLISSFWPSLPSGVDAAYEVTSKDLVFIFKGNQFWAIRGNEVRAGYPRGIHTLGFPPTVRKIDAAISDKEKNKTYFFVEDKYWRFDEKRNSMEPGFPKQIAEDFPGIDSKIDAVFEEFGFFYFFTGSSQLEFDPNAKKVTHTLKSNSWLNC
Disintegrin and metalloproteinase domain-containing protein 17 (Homo sapiens), sequence (P78536 whole entry, the tested form may be a part): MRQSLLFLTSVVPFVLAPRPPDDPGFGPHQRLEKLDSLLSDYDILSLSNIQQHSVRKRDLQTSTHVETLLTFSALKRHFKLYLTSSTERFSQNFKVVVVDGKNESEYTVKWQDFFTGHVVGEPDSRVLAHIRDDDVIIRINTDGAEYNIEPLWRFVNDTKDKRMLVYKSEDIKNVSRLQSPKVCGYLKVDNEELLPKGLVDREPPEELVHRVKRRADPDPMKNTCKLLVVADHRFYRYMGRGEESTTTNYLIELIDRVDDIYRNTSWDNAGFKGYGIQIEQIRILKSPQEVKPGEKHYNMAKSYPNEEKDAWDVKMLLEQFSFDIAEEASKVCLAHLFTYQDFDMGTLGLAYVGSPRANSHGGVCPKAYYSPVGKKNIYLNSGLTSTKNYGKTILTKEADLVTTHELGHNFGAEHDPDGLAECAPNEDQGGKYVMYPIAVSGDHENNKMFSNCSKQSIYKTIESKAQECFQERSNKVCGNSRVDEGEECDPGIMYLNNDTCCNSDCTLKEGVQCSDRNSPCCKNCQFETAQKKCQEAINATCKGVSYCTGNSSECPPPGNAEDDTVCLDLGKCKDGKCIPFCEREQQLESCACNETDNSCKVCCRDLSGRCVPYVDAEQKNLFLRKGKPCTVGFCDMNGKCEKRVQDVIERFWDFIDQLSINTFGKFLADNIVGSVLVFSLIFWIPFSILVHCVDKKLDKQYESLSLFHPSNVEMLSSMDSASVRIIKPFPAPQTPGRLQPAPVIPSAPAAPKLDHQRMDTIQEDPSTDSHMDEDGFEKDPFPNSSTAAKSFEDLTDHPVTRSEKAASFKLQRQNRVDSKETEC

As for `COc1ccc(S(=O)(=O)C(CCN(C)C(=O)c2ccccc2)CC(=O)NO)cc1OC1CCCC1` (stereo not drawn), the IC50 in assay [1] is above 10 µM; in assay [2], above 10 µM; in assay [3], above 10 µM; in assay [4], 1.04 µM.

Consider `COc1ccc(S(=O)(=O)C(CCCC(=O)N(C)c2ccccc2)CC(=O)NO)cc1OC1CCCC1` (stereo not drawn), for which the IC50 in assay [1] was above 10 µM; in assay [2], above 10 µM; in assay [3] it was above 10 µM; in assay [4], 0.118 µM.

With `COc1ccc(S(=O)(=O)C(CCc2ccc(OCc3ccccc3)cc2)CC(=O)NO)cc1OC` (stereo not drawn), the IC50 in assay [1] is above 10 µM; in assay [2], above 10 µM; in assay [3], above 10 µM; in assay [4], 0.064 µM.

In the case of `COc1ccc(Oc2cccc(C(CC(=O)NO)S(=O)(=O)c3ccc(OC)c(OC4CCCC4)c3)c2)cc1` (stereo not drawn), the IC50 in assay [1] was above 10 µM; in assay [2] it was above 10 µM; in assay [3] it was above 10 µM; in assay [4], 0.049 µM.

For `COc1ccc(S(=O)(=O)C(CC(=O)NO)CC(C)C)cc1OC` (stereo not drawn), the IC50 in assay [1], in assay [2], in assay [3] and in assay [4] was above 10 µM throughout.

For `COc1ccc(S(=O)(=O)C(CCC(=O)N2CCCc3ccccc32)CC(=O)NO)cc1OC` (stereo not drawn), the IC50 in assay [1] is above 10 µM; in assay [2] it was above 10 µM; in assay [3], above 10 µM; in assay [4], 0.564 µM.

Consider `COc1ccc(S(=O)(=O)C(CC(=O)NO)c2cccc(OCc3ccccc3)c2)cc1OC1CCCC1` (stereo not drawn), for which the IC50 in assay [1] was above 10 µM; in assay [2] it was above 10 µM; in assay [3] it was above 10 µM; in assay [4] it was 0.089 µM.

As to `COc1ccc(S(=O)(=O)C(CCCC(=O)N2CCCc3ccccc32)CC(=O)NO)cc1OC1CCCC1` (stereo not drawn), the IC50 in assay [1] was above 10 µM; in assay [2], above 10 µM; in assay [3], above 10 µM; in assay [4] it was 0.036 µM.

As to `COc1ccc(S(=O)(=O)C(CCc2ccc(Oc3ccccc3)cc2)CC(=O)NO)cc1OC1CCCC1` (stereo not drawn), the IC50 is above 10 µM in assay [1], above 10 µM in assay [2], above 10 µM in assay [3] and 0.032 µM in assay [4].

On to `COc1ccc(S(=O)(=O)C(CC(=O)NO)c2ccccc2)cc1OC` (stereo not drawn), for which the IC50 in assay [1] was above 10 µM; in assay [2], above 10 µM; in assay [5] it was 0.45 µM; in assay [3], above 10 µM; in assay [4], 0.58 µM. The result in assay [6] was inactive.

Turning to `COc1ccc(S(=O)(=O)C(CCCC(=O)N2CCCc3ccccc32)CC(=O)NO)cc1OC` (stereo not drawn), the IC50 was above 10 µM in assay [1], above 10 µM in assay [2], above 10 µM in assay [3] and 0.295 µM in assay [4].

Molecule `COc1ccc(C(=O)Nc2c(Cl)cncc2Cl)cc1OC1CCCC1` came in with an IC50 in assay [5] of 0.005 µM.

On to `COc1ccc(S(=O)(=O)C(CC(=O)NO)CN(C)C(=O)c2ccccc2)cc1OC1CCCC1` (stereo not drawn), for which the IC50 is above 10 µM in assay [1], above 10 µM in assay [2], above 10 µM in assay [3] and 0.974 µM in assay [4].

Consider `CCCCCCC(CC(=O)NO)S(=O)(=O)c1ccc(OC)c(OC2CCCC2)c1` (stereo not drawn), for which the IC50 was above 10 µM in assay [1], above 10 µM in assay [2], above 10 µM in assay [3] and 0.0095 µM in assay [4].

Take `CCCC(CC(=O)NO)S(=O)(=O)c1ccc(OC)c(OC2CCCC2)c1` (stereo not drawn): the IC50 in assay [1] is above 10 µM; in assay [2], above 10 µM; in assay [3], above 10 µM; in assay [4], 0.055 µM.

On to `COc1ccc(S(=O)(=O)C(CCc2ccc(OCc3ccccc3)cc2)CC(=O)NO)cc1OC1CCCC1` (stereo not drawn), for which the IC50 in assay [1] is above 10 µM; in assay [2], above 10 µM; in assay [3] it was above 10 µM; in assay [4], 0.063 µM.

The molecule `COc1ccc(S(=O)(=O)C(CCCCc2ccccc2)CC(=O)NO)cc1` (stereo not drawn) registered an IC50 in assay [5] above 10 µM. Further, the result in assay [6] was inactive.

Regarding `COc1ccc(S(=O)(=O)C(CCC(=O)N2CCCc3ccccc32)CC(=O)NO)cc1OC1CCCC1` (stereo not drawn), the IC50 was above 10 µM in assay [1], above 10 µM in assay [2], above 10 µM in assay [3] and 0.016 µM in assay [4].

Consider `COc1ccc(S(=O)(=O)C(CC(=O)NO)c2ccccc2OCc2ccccc2)cc1OC1CCCC1` (stereo not drawn), for which the IC50 in assay [1] was above 10 µM; in assay [2], above 10 µM; in assay [3], above 10 µM; in assay [4] it was 1.5 µM.

As to `COc1ccc(S(=O)(=O)C(CCOC(=O)N(C)c2ccccc2)CC(=O)NO)cc1OC1CCCC1` (stereo not drawn), the IC50 is above 10 µM in assay [1], above 10 µM in assay [2], above 10 µM in assay [3] and 0.14 µM in assay [4].

`CCCC(CC(=O)NO)S(=O)(=O)c1ccc(OC)c(OC)c1` (stereo not drawn): the IC50 is above 10 µM in assay [1], above 10 µM in assay [2], above 10 µM in assay [3] and 5.25 µM in assay [4].

Consider `COc1ccc(S(=O)(=O)C(CC(=O)NO)c2ccc(OCc3ccccc3)cc2)cc1OC1CCCC1` (stereo not drawn), for which the IC50 in assay [1] is above 10 µM; in assay [2] it was above 10 µM; in assay [3], above 10 µM; in assay [4], 0.021 µM.

For `COc1ccc(S(=O)(=O)C(CCC(=O)N(C)c2ccccc2)CC(=O)NO)cc1OC1CCCC1` (stereo not drawn), the IC50 in assay [1] is above 10 µM; in assay [2], above 10 µM; in assay [3] it was above 10 µM; in assay [4], 0.05 µM.

Take `COc1ccc(S(=O)(=O)C(CCCCc2ccc3c(c2)OCO3)CC(=O)NO)cc1OC` (stereo not drawn): the IC50 in assay [1] was above 10 µM; in assay [2], above 10 µM; in assay [3] it was above 10 µM; in assay [4] it was 0.0064 µM.

Regarding `COc1ccc(S(=O)(=O)C(CC(=O)NO)CC(C)C)cc1OC1CCCC1` (stereo not drawn), the IC50 in assay [1] was above 10 µM; in assay [2], above 10 µM; in assay [3], above 10 µM; in assay [4] it was 0.102 µM.

For `COc1ccc(S(=O)(=O)C(CC(=O)NO)c2cccc(Oc3ccccc3)c2)cc1OC1CCCC1` (stereo not drawn), the IC50 in assay [1] is above 10 µM; in assay [2], above 10 µM; in assay [3], above 10 µM; in assay [4], 0.26 µM.

Turning to `COc1ccc(S(=O)(=O)C(CCCc2ccccc2)CC(=O)NO)cc1OC` (stereo not drawn), the IC50 in assay [1] is above 10 µM; in assay [2], above 10 µM; in assay [5] it was 0.009 µM; in assay [3], above 10 µM; in assay [4], 0.014 µM. Besides, in assay [6], the outcome was inactive.

Consider `COc1ccc(S(=O)(=O)C(CCCN2C(=O)c3ccccc3C2=O)CC(=O)NO)cc1OC1CCCC1` (stereo not drawn), for which the IC50 in assay [1] is above 10 µM; in assay [2], above 10 µM; in assay [3] it was above 10 µM; in assay [4] it was 0.032 µM.

Turning to `COc1ccc(S(=O)(=O)C(CCN(C)C(=O)OCc2ccccc2)CC(=O)NO)cc1OC1CCCC1` (stereo not drawn), the IC50 is above 10 µM in assay [1], above 10 µM in assay [2], above 10 µM in assay [3] and 0.46 µM in assay [4].

As for `COc1ccc(S(=O)(=O)C(CCc2ccccc2)CC(=O)NO)cc1OC1CCCC1` (stereo not drawn), the IC50 was above 10 µM in assay [1], above 10 µM in assay [2], above 10 µM in assay [3] and 0.031 µM in assay [4].

In the case of `COc1ccc(S(=O)(=O)C(CCc2ccccc2)CC(=O)NO)cc1OC` (stereo not drawn), the IC50 is above 10 µM in assay [1], above 10 µM in assay [2], above 10 µM in assay [3] and 3.03 µM in assay [4].

The term IC50 denotes the concentration at which inhibition is half-maximal.
